Reference: patent US10709727B2, “Antiviral drugs” (priority 2015, dated 2020)

Key:
[1] = system: HBV; test: Effect of LIPG inhibitor on HBV in Huh7 cell line carrying HBV expression construct (Example 10); format: cell-based, hepatitis B virus; conditions: Huh7 cells, inhibitor 1 μM to 100 μM added five days after construct introduction, one week; depending on the concentration
Method: An HBV expression construct (HBV-C: provided by Dr. Yasuhito Tanaka at Nagoya City University) was introduced into Huh7 cell line. Five days after the introduction, an LIPG inhibitor (GSK264220A) was added at 1 μM to 100 μM and the cells were cultured.

[2] = system: HBV; test: shRNA function against HBV infection of fresh human hepatocytes (PHH cells), short-term culture (Example 3); conditions: for amount of cccDNA: shRNA alone, lentivirus day 0, HBV day 1, collected day 7; for amount of cccDNA, combined use of ETV: shRNA plus entecavir (ETV) 10 nM from day 2, collected day 7 (short-term culture)
Method: Using fresh human hepatocytes (PHH cells) derived from PXB mouse (PhoenixBio Co., Ltd., Hiroshima, Japan), effects of shRNAs against each gene on infection of human hepatocytes with HBV were determined. Experiments were carried out by culturing PHH cells as follows. First, on day 0 of culture, the cells were infected with the lentivirus expressing the shRNA against each of the genes by a conventional method. A serum collected from an HBV-infected chimeric mouse infected with HBV (Genotype C. 5 HBV DNA copies/cell) was added to the cells as an HBV inoculum on day 1 of culture. On day 2 of culture, the cells were washed three times and entecavir (ETV) (10 nM) was added thereto. On day 7 of culture, the cells were collected and the amount of HBV DNA, the amount of HBV cccDNA, and the mRNA level of each gene were determined. The amounts of HBV DNA, HBV cccDNA, and pg RNA were quantified in the same manner as in Example 1.

[3] = system: DOCK11 gene; test: DOCK11 gene expression (mRNA) in Huh 7.5 cells (Example 8); conditions: Huh7.5 cells, vs cont shRNA
Method: The mRNA of DOCK11 gene was quantified by real time PCR according to a conventional method.
The antiviral activity of the shRNA against Dock11 gene was evaluated using a replicon system for JFH1 strain. HCV replication analysis was performed by transfecting Huh 7.5 cells with synthetic JFH1-RNA. Cells in which DOCK11 was constitutively knocked down were prepared by introducing DOCK11 shRNA #2 into Huh 7.5 cells. Cells into which cont shRNA was introduced were used as a control. Huh 7.5 cells into which each shRNA had been introduced were transfected with 1 μg synthetic RNA (JFH1-RNA) using TransIT®-mRNA Transfection Kit (Mirus). Total RNAs were isolated 24, 48 and 72 hours after the transfection using High Pure RNA Isolation Kit (Roche), and cDNAs were synthesized using high-capacity cDNA reverse transcription kit (Applied Biosystems, Carlsbad, Calif.). […] The expression of DOCK11 gene was evaluated by determining the level of mRNA in the same manner as in Example 2.

[4] = system: HBV; test: shRNA introduced after established HBV infection of PHHs (Example 6); format: cell-based, hepatitis B virus; conditions: shRNA introduced one week after HBV infection, cultured 3 weeks
Method: The effects of an shRNA on the proliferation of HBV when PHHs were infected with HBV and then treated with an shRNA were investigated. One week after PHHs were infected with HBV, the shRNA (SEQ ID NO: 2) against Dock11 gene was introduced and the cells were cultured for 3 weeks with culture medium changes.

[5] = system: HCV; test: HCV replication analysis, JFH1-RNA transfected Huh 7.5 cells (Example 8); conditions: Huh7.5 cells, 24, 48 and 72 hours after introduction of HCV RNA (JFH1-RNA)
Method: The antiviral activity of the shRNA against Dock11 gene was evaluated using a replicon system for JFH1 strain. HCV replication analysis was performed by transfecting Huh 7.5 cells with synthetic JFH1-RNA. Cells in which DOCK11 was constitutively knocked down were prepared by introducing DOCK11 shRNA #2 into Huh 7.5 cells. Cells into which cont shRNA was introduced were used as a control. Huh 7.5 cells into which each shRNA had been introduced were transfected with 1 μg synthetic RNA (JFH1-RNA) using TransIT®-mRNA Transfection Kit (Mirus). Total RNAs were isolated 24, 48 and 72 hours after the transfection using High Pure RNA Isolation Kit (Roche), and cDNAs were synthesized using high-capacity cDNA reverse transcription kit (Applied Biosystems, Carlsbad, Calif.).

Molecule | amount of cccDNA [2] | amount of cccDNA, combined use of ETV [2] | further results
Cc1oc(S(=O)(=O)N2CCCCC2)cc1NC(=O)Nc1ccccc1 [GSK264220A] |  |  | amount of HBV DNA [1]: decreased; amount of HBV cccDNA [1]: decreased
DENND2A #2: lentivirus-expressed shRNA against DENND2A gene, SEQ ID NO: 7, used in Examples 3 and 4 (guide CCGGCCAATGAAGGAGAACCCTTATCTCGAGATAAGGGTTCTCCTTCATTGGTTTTTTG) | dramatically decreased | below the detection sensitivity | amount of cccDNA, combined use of ETV ([2]; listed as shRNA for DENND2A gene): below the detection limit
DOCK11 #2: lentivirus-expressed shRNA against DOCK11 gene, SEQ ID NO: 2, used in Examples 3, 4, 6, 8, 12 (guide CCGGGTACTAGACACCATATCATTTCTCGAGAAATGATATGGTGTCTAGTACTTTTTG) | dramatically decreased | below the detection sensitivity | amount of cccDNA, combined use of ETV ([2]; listed as shRNA for Dock11 gene): below the detection limit; expression level of DOCK11 gene [3]: decreased; cccDNA of HBV [4]: disappear; pgRNA of HBV [4]: disappear; HCV RNA replication [5]: effectively suppressed
HECW2 #3: lentivirus-expressed shRNA against HECW2 gene, SEQ ID NO: 17, used in Examples 3 and 4 (guide CCGGGCACAATACTTGGAGTCAATTCTCGAGAATTGACTCCAAGTATTGTGCTTTTT) | decreased | synergistic effect to decrease cccDNA | 
LIPG #5: lentivirus-expressed shRNA against LIPG gene, SEQ ID NO: 14, used in Examples 3 and 4 (guide CCGGTTACACGGATGCGGTCAATAACTCGAGTTATTGACCGCATCCGTGTAATTTTTG) | decreased | synergistic effect to decrease cccDNA | 
